Reference: ChEMBL document CHEMBL1909046, “DrugMatrix in vitro pharmacology data”

test system: not listed separately; experiment: DRUGMATRIX: Calcium Channel Type L, Dihydropyridine radioligand binding (ligand: [3H] Nitrendipine); format: cell membranes, Rattus norvegicus, Wistar, Cerebral cortex, Membrane; conditions: Not Active = under 50% inhibition at 10 µM

| Structure (SMILES) | IC50 | Ki |
| --- | --- | --- |
| Cc1cc(O)cc(C)c1Cl [CHLOROXYLENOL] | Not Active | Not Active |
| CCCNC(=O)NS(=O)(=O)c1ccc(Cl)cc1 [CHLORPROPAMIDE] | Not Active | Not Active |
| NS(=O)(=O)c1cc(C2(O)NC(=O)c3ccccc32)ccc1Cl (stereo not given) [CHLORTHALIDONE] | Not Active | Not Active |
| O=C(O)CC(O)(CC(=O)O)C(=O)O [CITRIC ACID] | Not Active | Not Active |
| CC(C)NCC(O)c1ccccc1Cl (stereo not given) [CLORPRENALINE] | Not Active | Not Active |

target: Sigma non-opioid intracellular receptor 1 (Homo sapiens, UniProt Q99720); experiment: DRUGMATRIX: Sigma1 radioligand binding (ligand: [3H] Haloperidol); format: cell membranes, Jurkat, Membrane; conditions: jurkat; Not Active = under 50% inhibition at 10 µM
Sequence (Q99720 whole entry): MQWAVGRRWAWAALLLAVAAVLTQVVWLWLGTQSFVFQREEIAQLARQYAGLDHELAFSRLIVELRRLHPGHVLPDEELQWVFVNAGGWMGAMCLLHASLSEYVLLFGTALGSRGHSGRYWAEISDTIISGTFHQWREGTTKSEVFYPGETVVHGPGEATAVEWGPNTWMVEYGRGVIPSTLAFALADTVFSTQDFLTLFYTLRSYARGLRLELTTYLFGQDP

| Structure (SMILES) | IC50 |
| --- | --- |
| Cc1cc(O)cc(C)c1Cl [CHLOROXYLENOL] | Not Active |
| CCCNC(=O)NS(=O)(=O)c1ccc(Cl)cc1 [CHLORPROPAMIDE] | Not Active |
| NS(=O)(=O)c1cc(C2(O)NC(=O)c3ccccc32)ccc1Cl (stereo not given) [CHLORTHALIDONE] | Not Active |
| O=C(O)CC(O)(CC(=O)O)C(=O)O [CITRIC ACID] | Not Active |
| CC(C)NCC(O)c1ccccc1Cl (stereo not given) [CLORPRENALINE] | Not Active |

target: C-C chemokine receptor type 5 (Homo sapiens, UniProt P51681); format: cell membranes, Membrane; conditions: hek293; further: in other assays of this panel Not Active means under 50% inhibition at 10 µM
Sequence (P51681 whole entry): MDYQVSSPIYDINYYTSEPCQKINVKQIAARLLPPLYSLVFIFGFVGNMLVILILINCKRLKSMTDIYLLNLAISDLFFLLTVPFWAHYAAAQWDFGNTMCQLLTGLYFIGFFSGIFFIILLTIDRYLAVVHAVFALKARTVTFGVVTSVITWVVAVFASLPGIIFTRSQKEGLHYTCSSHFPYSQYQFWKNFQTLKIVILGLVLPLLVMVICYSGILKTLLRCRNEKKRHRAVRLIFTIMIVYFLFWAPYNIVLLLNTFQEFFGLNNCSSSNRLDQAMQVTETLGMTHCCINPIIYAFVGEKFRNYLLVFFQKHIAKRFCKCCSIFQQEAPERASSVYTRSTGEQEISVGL

| Structure (SMILES) | IC50 |
| --- | --- |
| Cc1cc(O)cc(C)c1Cl [CHLOROXYLENOL] | Not Active |
| CCCNC(=O)NS(=O)(=O)c1ccc(Cl)cc1 [CHLORPROPAMIDE] | Not Active |
| NS(=O)(=O)c1cc(C2(O)NC(=O)c3ccccc32)ccc1Cl (stereo not given) [CHLORTHALIDONE] | Not Active |
| O=C(O)CC(O)(CC(=O)O)C(=O)O [CITRIC ACID] | Not Active |
| CC(C)NCC(O)c1ccccc1Cl (stereo not given) [CLORPRENALINE] | Not Active |

target: T1, C-X-C chemokine receptor type 2 (Homo sapiens, UniProt P25025); format: cell membranes, Membrane; conditions: cho-k1; further: in other assays of this panel Not Active means under 50% inhibition at 10 µM
T1 sequence (P25025 whole entry): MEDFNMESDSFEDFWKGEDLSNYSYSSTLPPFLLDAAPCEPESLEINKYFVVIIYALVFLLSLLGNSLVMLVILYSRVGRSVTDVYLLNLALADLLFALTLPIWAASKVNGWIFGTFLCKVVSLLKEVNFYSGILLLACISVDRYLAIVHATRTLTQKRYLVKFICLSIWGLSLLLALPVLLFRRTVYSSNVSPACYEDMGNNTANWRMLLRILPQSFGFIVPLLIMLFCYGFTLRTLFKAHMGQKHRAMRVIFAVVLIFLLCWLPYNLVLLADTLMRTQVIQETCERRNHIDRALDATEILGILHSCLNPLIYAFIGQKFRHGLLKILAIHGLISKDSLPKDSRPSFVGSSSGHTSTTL

| Structure (SMILES) | IC50 |
| --- | --- |
| Cc1cc(O)cc(C)c1Cl [CHLOROXYLENOL] | Not Active |
| CCCNC(=O)NS(=O)(=O)c1ccc(Cl)cc1 [CHLORPROPAMIDE] | Not Active |
| NS(=O)(=O)c1cc(C2(O)NC(=O)c3ccccc32)ccc1Cl (stereo not given) [CHLORTHALIDONE] | Not Active |
| O=C(O)CC(O)(CC(=O)O)C(=O)O [CITRIC ACID] | Not Active |
| CC(C)NCC(O)c1ccccc1Cl (stereo not given) [CLORPRENALINE] | Not Active |

target: T2, Neuropeptide Y receptor type 2 (Homo sapiens, UniProt P49146); format: cell membranes, Membrane; conditions: kan-ts; further: in other assays of this panel Not Active means under 50% inhibition at 10 µM
T2 sequence (P49146 whole entry): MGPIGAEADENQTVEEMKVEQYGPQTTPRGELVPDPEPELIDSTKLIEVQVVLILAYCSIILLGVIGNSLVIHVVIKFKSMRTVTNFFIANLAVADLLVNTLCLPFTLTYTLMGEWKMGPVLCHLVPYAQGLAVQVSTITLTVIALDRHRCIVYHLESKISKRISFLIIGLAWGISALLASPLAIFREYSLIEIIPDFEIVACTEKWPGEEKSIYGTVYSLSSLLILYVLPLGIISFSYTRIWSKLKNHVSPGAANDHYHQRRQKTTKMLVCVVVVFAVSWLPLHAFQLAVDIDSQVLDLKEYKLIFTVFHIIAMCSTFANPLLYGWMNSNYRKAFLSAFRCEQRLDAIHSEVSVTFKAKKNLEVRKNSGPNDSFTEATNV

| Structure (SMILES) | IC50 |
| --- | --- |
| Cc1cc(O)cc(C)c1Cl [CHLOROXYLENOL] | Not Active |
| CCCNC(=O)NS(=O)(=O)c1ccc(Cl)cc1 [CHLORPROPAMIDE] | Not Active |
| NS(=O)(=O)c1cc(C2(O)NC(=O)c3ccccc32)ccc1Cl (stereo not given) [CHLORTHALIDONE] | Not Active |
| O=C(O)CC(O)(CC(=O)O)C(=O)O [CITRIC ACID] | Not Active |
| CC(C)NCC(O)c1ccccc1Cl (stereo not given) [CLORPRENALINE] | Not Active |

target: T3, Nitric oxide synthase, inducible (Mus musculus, UniProt P29477); parameters: species or system Escherichia coli; conditions: not given;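 further: inhibition of iNOS enzyme activity measured with L-arginine as substrate; in other assays of this panel Not Active means under 50% inhibition at 10 µM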
T3 sequence (P29477 whole entry): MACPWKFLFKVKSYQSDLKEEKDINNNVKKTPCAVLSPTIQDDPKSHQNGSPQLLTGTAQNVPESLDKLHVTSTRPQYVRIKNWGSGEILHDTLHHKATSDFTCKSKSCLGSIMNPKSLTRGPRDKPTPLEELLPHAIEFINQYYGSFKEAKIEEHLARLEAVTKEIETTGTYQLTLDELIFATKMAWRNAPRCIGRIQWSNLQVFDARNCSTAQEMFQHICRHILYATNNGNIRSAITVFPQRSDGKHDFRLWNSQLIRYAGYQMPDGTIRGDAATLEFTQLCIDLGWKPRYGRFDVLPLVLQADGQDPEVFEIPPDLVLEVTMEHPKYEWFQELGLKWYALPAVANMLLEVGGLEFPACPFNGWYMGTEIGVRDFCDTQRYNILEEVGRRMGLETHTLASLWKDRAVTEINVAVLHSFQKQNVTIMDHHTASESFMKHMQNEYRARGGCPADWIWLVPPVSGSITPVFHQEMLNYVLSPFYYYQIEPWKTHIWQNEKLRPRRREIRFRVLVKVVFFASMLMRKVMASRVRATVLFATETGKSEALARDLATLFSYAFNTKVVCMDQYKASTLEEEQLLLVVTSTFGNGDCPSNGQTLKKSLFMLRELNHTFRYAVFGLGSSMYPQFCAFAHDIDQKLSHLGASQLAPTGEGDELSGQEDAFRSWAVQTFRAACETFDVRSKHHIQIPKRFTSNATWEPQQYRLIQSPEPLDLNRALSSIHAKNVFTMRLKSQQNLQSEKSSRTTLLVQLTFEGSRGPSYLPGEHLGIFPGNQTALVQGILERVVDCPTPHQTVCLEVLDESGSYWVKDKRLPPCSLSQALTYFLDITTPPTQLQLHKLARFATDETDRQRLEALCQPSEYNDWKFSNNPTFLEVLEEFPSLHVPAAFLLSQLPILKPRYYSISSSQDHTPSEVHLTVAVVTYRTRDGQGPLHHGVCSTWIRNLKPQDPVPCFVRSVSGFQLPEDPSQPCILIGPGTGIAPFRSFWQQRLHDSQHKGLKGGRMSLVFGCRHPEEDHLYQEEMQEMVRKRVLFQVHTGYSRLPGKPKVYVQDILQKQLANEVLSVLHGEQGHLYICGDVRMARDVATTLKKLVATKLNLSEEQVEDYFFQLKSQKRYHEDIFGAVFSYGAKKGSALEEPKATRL

| Structure (SMILES) | IC50 |
| --- | --- |
| Cc1cc(O)cc(C)c1Cl [CHLOROXYLENOL] | Not Active |
| CCCNC(=O)NS(=O)(=O)c1ccc(Cl)cc1 [CHLORPROPAMIDE] | Not Active |
| NS(=O)(=O)c1cc(C2(O)NC(=O)c3ccccc32)ccc1Cl (stereo not given) [CHLORTHALIDONE] | Not Active |
| O=C(O)CC(O)(CC(=O)O)C(=O)O [CITRIC ACID] | Not Active |
| CC(C)NCC(O)c1ccccc1Cl (stereo not given) [CLORPRENALINE] | Not Active |

target: T4, Neutrophil elastase (Homo sapiens, UniProt P08246); format: tissue-based; conditions: not given
T4 sequence (P08246 whole entry): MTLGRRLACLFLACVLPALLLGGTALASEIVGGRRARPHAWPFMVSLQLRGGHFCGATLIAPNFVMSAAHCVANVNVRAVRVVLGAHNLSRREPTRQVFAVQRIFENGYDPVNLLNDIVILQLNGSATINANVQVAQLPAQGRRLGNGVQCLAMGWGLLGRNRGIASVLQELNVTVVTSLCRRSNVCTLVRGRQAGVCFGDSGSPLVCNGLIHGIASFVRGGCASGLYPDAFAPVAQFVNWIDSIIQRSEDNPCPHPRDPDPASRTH

| Structure (SMILES) | IC50 |
| --- | --- |
| Cc1cc(O)cc(C)c1Cl [CHLOROXYLENOL] | Not Active |
| CCCNC(=O)NS(=O)(=O)c1ccc(Cl)cc1 [CHLORPROPAMIDE] | Not Active |
| NS(=O)(=O)c1cc(C2(O)NC(=O)c3ccccc32)ccc1Cl (stereo not given) [CHLORTHALIDONE] | Not Active |
| O=C(O)CC(O)(CC(=O)O)C(=O)O [CITRIC ACID] | Not Active |
| CC(C)NCC(O)c1ccccc1Cl (stereo not given) [CLORPRENALINE] | Not Active |
